Measurements as given in publication PMC9151520 (Archives of Toxicology, 2022).
Like-named read-outs stand apart in the source and are kept apart here.

Columns and labels:
[1] = system: p53 signaling (p53RE-bla HCT-116 cells)
[2] = system: p53 signaling (p53RE-bla HCT-116 cells); remark: listed apart in the source
[3] = system: p53 signaling (p53RE-bla HCT-116 cells); assay: cells; type: cell-based
[4] = read-out: EC50, p53 activation, cherry pick confirmation
[5] = Homo sapiens, HCT-116, read-out: p53 activation EC50, cherry pick confirmation
[6] = Homo sapiens, HCT-116, read-out: p53 activation EC50, primary screening
[7] = Homo sapiens, HCT-116, read-out: p53 activation efficacy, cherry pick confirmation
[8] = Homo sapiens, HCT-116, read-out: p53 activation efficacy, primary screening
[9] = Homo sapiens, HCT-116, read-out: EC50, p53 activation, cherry pick confirmation
[10] = Homo sapiens, HCT-116, read-out: EC50, p53 activation, primary screening
[11] = Homo sapiens, HCT-116, read-out: Efficacy, p53 activation, cherry pick confirmation
[12] = Homo sapiens, HCT-116, read-out: Efficacy, p53 activation, primary screening

SMILES | p53 activation EC50, cherry pick confirmation [1] | p53 activation EC50, primary screening [1] | p53 activation efficacy, cherry pick confirmation [1] | p53 activation efficacy, primary screening [1] | Viability EC50, cherry pick confirmation (p53RE-bla HCT-116 cells) | Viability EC50, primary screening (p53RE-bla HCT-116 cells) | Viability efficacy, cherry pick confirmation (p53RE-bla HCT-116 cells) | Viability efficacy, primary screening (p53RE-bla HCT-116 cells) | p53 activation EC50, cherry pick confirmation [2] | p53 activation EC50, primary screening [2] | p53 activation efficacy, cherry pick confirmation [2] | p53 activation efficacy, primary screening [2] | EC50, viability, cherry pick confirmation (p53RE-bla HCT-116 cells) | EC50, viability, primary screening (p53RE-bla HCT-116 cells) | Efficacy, viability, cherry pick confirmation (p53RE-bla HCT-116 cells) | Efficacy, viability, primary screening (p53RE-bla HCT-116 cells) | EC50, p53 activation, cherry pick confirmation [2] | EC50 [3, 6] | Emax [3, 8] | further results
CO.COc1cc(Nc2c(C#N)cnc3cc(OCCCN4CCN(C)CC4)c(OC)cc23)c(Cl)cc1Cl [Bosutinib methanoate] | inactive | inactive | inactive | inactive | inactive | inactive | inactive | inactive | inactive | inactive | inactive | inactive |  |  |  |  |  |  |  | p53 activation efficacy, cherry pick confirmation [3]: 36.685; p53 activation efficacy, primary screening [3]: 29.3917; EC50 ([3]; read-out: p53 activation EC50, cherry pick confirmation): 17.3 µM; EC50 ([3]; read-out: p53 activation EC50, primary screening): 15.4 µM
CCOP(=S)(OCC)Oc1cc(Cl)c(Br)cc1Cl [Bromophos-ethyl] |  |  |  |  |  |  |  |  |  |  |  |  | inactive | inactive | inactive | inactive | inactive |  |  | EC50 [1]: 12.5 µM; EC50 [1, 4]: 6.31 µM; EC50, p53 activation, primary screening [3]: inactive; Efficacy, p53 activation, cherry pick confirmation [3]: 38.522; Efficacy, p53 activation, primary screening [3]: inactive; EC50 [3, 4]: 33.2 µM
COC(=O)Nc1nc2ccccc2[nH]1 [Carbendazim] | inactive | inactive | inactive | inactive | inactive | inactive | inactive | inactive | inactive | inactive | inactive | inactive |  |  |  |  |  | 10.3 µM | 67% | EC50 [3, 5]: 11.9 µM; Emax [3, 7]: 62.2%
CNC(=O)Oc1cccc2c1OC(C)(C)C2 [Carbofuran] |  |  |  |  |  |  |  |  |  |  |  |  |  |  |  |  |  |  |  | p53 activation EC50 [1]: inactive; Viability EC50 (p53RE-bla HCT-116 cells): inactive; Viability efficacy (p53RE-bla HCT-116 cells): inactive; p53 activation EC50 [2]: inactive; p53 activation EC50 [3]: inactive; p53 activation efficacy [3]: inactive
O=C(NC(=O)c1c(F)cccc1F)Nc1cc(Cl)c(Oc2ncc(C(F)(F)F)cc2Cl)c(Cl)c1 [Chlorfluazuron] | inactive | inactive | inactive | inactive | inactive | inactive | inactive | inactive | inactive | inactive | inactive | inactive |  |  |  |  |  | 31.4 µM | 80.6% | p53 activation EC50, cherry pick confirmation [3]: inactive; p53 activation efficacy, cherry pick confirmation [3]: inactive
O=c1cc(-c2ccccc2)oc2cc(O)cc(O)c12 [Chrysin] |  |  |  |  |  |  |  |  |  |  |  |  | inactive | inactive | inactive | inactive | inactive |  |  | EC50, p53 activation, cherry pick confirmation [1]: inactive; EC50, p53 activation, primary screening [1]: inactive; Efficacy, p53 activation, cherry pick confirmation [1]: inactive; Efficacy, p53 activation, primary screening [1]: inactive; EC50, p53 activation, primary screening [2]: inactive; Efficacy, p53 activation, cherry pick confirmation [2]: inactive; Efficacy, p53 activation, primary screening [2]: inactive; EC50 [3, 9]: 45 µM; EC50 [3, 10]: 49.5 µM; Emax [3, 11]: 43.6%; Emax [3, 12]: 38.6%
Cc1cc(C2CCCCC2)n(O)c(=O)c1 [Ciclopirox olamine] |  |  |  |  |  |  |  |  |  |  |  |  | inactive | inactive | inactive | inactive | inactive |  |  | EC50, p53 activation, cherry pick confirmation [1]: inactive; EC50, p53 activation, primary screening [1]: inactive; Efficacy, p53 activation, cherry pick confirmation [1]: inactive; Efficacy, p53 activation, primary screening [1]: inactive; EC50, p53 activation, primary screening [2]: inactive; Efficacy, p53 activation, cherry pick confirmation [2]: inactive; Efficacy, p53 activation, primary screening [2]: inactive; EC50 [3, 9]: 26.5 µM; EC50 [3, 10]: 16.3 µM; Emax [3, 11]: 57.2%; Emax [3, 12]: 26%
Nc1nc(Cl)nc2c1ncn2[C@@H]1O[C@H](CO)[C@@H](O)[C@@H]1F [Clofarabine] | inactive | inactive | inactive | inactive | inactive | inactive | inactive | inactive | inactive | inactive | inactive | inactive |  |  |  |  |  | 0.138 µM | 93.3% | EC50 [3, 5]: 0.335 µM; Emax [3, 7]: 84.9%
